Results taken from ChEMBL document CHEMBL1828599, “Synthesis, fluorescence and biodistribution of a bone-targeted near-infrared conjugate” (Eur J Med Chem, 2011).

How the values were obtained:
[1] = tested on: Kidney; test: Biodistribution in Kidney of BALB/C mouse at 1.7 x 10^-6 mol/kg, iv as single dose measured at 4 hrs by fluorescence imaging technique; format: ADME, organism-based; details: in vivo
[2] = tested on: Mus musculus; test: Biodistribution in bone joint of BALB/C mouse at 1.7 x 10^-6 mol/kg, iv as single dose measured at 24 hrs by fluorescence imaging technique; format: ADME, organism-based, Bone element; details: in vivo
[3] = tested on: Liver; test: Biodistribution in liver of BALB/C mouse at 1.7 x 10^-6 mol/kg, iv as single dose measured at 4 hrs by fluorescence imaging technique; format: ADME, organism-based; details: in vivo
[4] = tested on: Duodenum; test: Biodistribution in duodenum of BALB/C mouse at 1.7 x 10^-6 mol/kg, iv as single dose measured at 4 hrs by fluorescence imaging technique; format: ADME, organism-based; details: in vivo
[5] = tested on: Liver; test: Biodistribution in liver of BALB/C mouse at 1.7 x 10^-6 mol/kg, iv as single dose measured up to 60 mins by fluorescence imaging technique; format: ADME, organism-based; details: in vivo, 1 h
[6] = tested on: Mus musculus; test: Biodistribution in leg bone of BALB/C mouse at 1.7 x 10^-6 mol/kg, iv as single dose measured at 24 hrs by fluorescence imaging technique; format: ADME, organism-based, Bone element; details: in vivo
[7] = tested on: Mus musculus; test: Biodistribution in hip bone of BALB/C mouse at 1.7 x 10^-6 mol/kg, iv as single dose measured at 24 hrs by fluorescence imaging technique; format: ADME, organism-based, Bone of hip region; details: in vivo
[8] = tested on: Mus musculus; test: Biodistribution in bone joint of BALB/C mouse at 1.7 x 10^-6 mol/kg, iv as single dose measured up to 8 days by fluorescence imaging technique; format: ADME, organism-based, Bone element; details: in vivo, 192 h
[9] = tested on: Mus musculus; test: Biodistribution in soft tissue of BALB/C mouse at 1.7 x 10^-6 mol/kg, iv as single dose measured at 24 hrs by fluorescence imaging technique; format: ADME, organism-based; details: in vivo
[10] = tested on: Mus musculus; test: Biodistribution in bone joint of BALB/C mouse at 1.7 x 10^-6 mol/kg, iv as single dose measured at 16 days by fluorescence imaging technique; format: ADME, organism-based, Bone element; details: in vivo, 384 h

Compound | Drug uptake [1] | Drug uptake [2] | Drug uptake [3] | Drug uptake [4] | Drug uptake [5] | Drug uptake [6] | Drug uptake [7] | Drug uptake [8] | Drug uptake [9] | Drug uptake [10]
CC1(C)C(/C=C/C=C/C=C/C=C2/N(CCCCS(=O)(=O)[O-])c3ccc4ccccc4c3C2(C)C)=[N+](CCCCS(=O)(=O)[O-])c2ccc3ccccc3c21.[Na+] [INDOCYANINE GREEN] | Active | Active | Active | Active | Active | – | – | – | – | –
CC1(C)C(/C=C/C=C/C=C/C=C2\N(CCCCC(=O)O)c3ccc4ccccc4c3C2(C)C)=[N+](CCCCS(=O)(=O)[O-])c2ccc3ccccc3c21 | Active | Not Active | Active | Active | Active | – | – | – | – | –
CC1(C)C(/C=C/C=C/C=C/C=C2\N(CCCCC(=O)O)c3ccc4ccccc4c3C2(C)C)=[N+](CCCCC(=O)[O-])c2ccc3ccccc3c21 | Active | Not Active | Active | Active | Active | – | – | – | – | –
CC1(C)C(/C=C/C=C/C=C/C=C2\N(CCCCC(=O)CCCC(O)(P(=O)([O-])O)P(=O)(O)O)c3ccc4ccccc4c3C2(C)C)=[N+](CCCCS(=O)(=O)[O-])c2ccc3ccccc3c21.[Na+] | – | – | – | – | – | Active | Active | Active | Not Active | Not Active
